Measurements published in US8501752B2, “Methods for treating cancer and other pathological proliferating disorders by inhibiting mitosis using pyrrolo[2,3-d]pyrimidines” (Duquesne University of the Holy Ghost, priority 2005, dated 2013).

How the values were obtained:
[1] = tested on: HL-60(TB); test: NCI IVCLSP growth inhibition (SRB), HL-60(TB); type: cell-based, human; conditions: 48 h drug incubation
Method: (§1) FIG. 1 presents nine compounds that were tested using the National Cancer Institute (NCI) 60 human tumor cell lines. The cells lines, which represent leukemia, melanoma, and cancers of the lung, colon, brain, ovary, breast, prostate, and kidney, are listed in Table 1.
(§2) Compounds 1-9 were tested according to the NCI Developmental Therapeutics Program (DTP) In Vitro Cell Line Screening Project (IVCLSP). […] Methodology for testing under the IVCLSP is as follows: The human tumor cell lines of the cancer screening panel are grown in RPMI 1640 medium containing 5% fetal bovine serum and 2 mM L-glutamine. […]
(§3) Following drug addition, the plates are incubated for an additional 48 h at 37° C., 5% CO2, 95% air, and 100% relative humidity. […] Bound stain is subsequently solubilized with 10 mM trizma base, and the absorbance is read on an automated plate reader at a wavelength of 515 nm. […] Using the seven absorbance measurements [time zero, (Tz), control growth, (C), and test growth in the presence of drug at the five concentration levels (Ti)], the percentage growth is calculated at each of the drug concentrations levels. Percentage growth inhibition is calculated as: [(Ti−Tz)/(C−Tz)]×100 for concentrations for which Ti>/=Tz [(Ti−Tz)/Tz]×100 for concentrations for which Ti<Tz.
(§4) Three dose response parameters are calculated for each experimental agent. […]

[2] = tested on: K-562; test: NCI IVCLSP growth inhibition (SRB), K-562; type: cell-based, human; conditions: 48 h drug incubation
Method: as §1, §2, §3, §4

[3] = tested on: SR; test: NCI IVCLSP growth inhibition (SRB), SR; type: cell-based, human; conditions: 48 h drug incubation
Method: as §1, §2, §3, §4

[4] = tested on: NCI-H522; test: NCI IVCLSP growth inhibition (SRB), NCI-H522; type: cell-based, human; conditions: 48 h drug incubation
Method: as §1, §2, §3, §4

[5] = tested on: UACC-62; test: NCI IVCLSP growth inhibition (SRB), UACC-62; type: cell-based, human; conditions: 48 h drug incubation
Method: as §1, §2, §3, §4

[6] = tested on: OVCAR-3; test: NCI IVCLSP growth inhibition (SRB), OVCAR-3; type: cell-based, human; conditions: 48 h drug incubation
Method: as §1, §2, §3, §4

[7] = tested on: OVCAR-8; test: NCI IVCLSP growth inhibition (SRB), OVCAR-8; type: cell-based, human; conditions: 48 h drug incubation
Method: as §1, §2, §3, §4

[8] = tested on: CAKI-1; test: NCI IVCLSP growth inhibition (SRB), CAKI-1; type: cell-based, human; conditions: 48 h drug incubation
Method: as §1, §2, §3, §4

[9] = tested on: HCC-2998; test: NCI IVCLSP growth inhibition (SRB), HCC-2998; type: cell-based, human; conditions: 48 h drug incubation
Method: as §1, §2, §3, §4

[10] = tested on: HCT-15; test: NCI IVCLSP growth inhibition (SRB), HCT-15; type: cell-based, human; conditions: 48 h drug incubation
Method: as §1, §2, §3, §4

[11] = tested on: KM12; test: NCI IVCLSP growth inhibition (SRB), KM12; type: cell-based, human; conditions: 48 h drug incubation
Method: as §1, §2, §3, §4

[12] = tested on: SF-268; test: NCI IVCLSP growth inhibition (SRB), SF-268; type: cell-based, human; conditions: 48 h drug incubation
Method: as §1, §2, §3, §4

[13] = tested on: SF-295; test: NCI IVCLSP growth inhibition (SRB), SF-295; type: cell-based, human; conditions: 48 h drug incubation
Method: as §1, §2, §3, §4

[14] = tested on: SF-539; test: NCI IVCLSP growth inhibition (SRB), SF-539; type: cell-based, human; conditions: 48 h drug incubation
Method: as §1, §2, §3, §4

[15] = tested on: SN12C; test: NCI IVCLSP growth inhibition (SRB), SN12C; type: cell-based, human; conditions: 48 h drug incubation
Method: as §1, §2, §3, §4

[16] = tested on: MDA-N; test: NCI IVCLSP growth inhibition (SRB), MDA-N; type: cell-based, human; conditions: 48 h drug incubation
Method: as §1, §2, §3, §4

[17] = tested on: T-47D; test: NCI IVCLSP growth inhibition (SRB), T-47D; type: cell-based, human; conditions: 48 h drug incubation
Method: as §1, §2, §3, §4

[18] = tested on: T24 human bladder carcinoma cells; test: Cytotoxicity, T24 cells; type: cell-based; conditions: mean ± SEM for 3 experiments
[19] = tested on: HL-60 human promyelocytic leukemia cells; test: Flow cytometric cell cycle phase distribution; type: cell-based; conditions: 24 hours treatment
Method: Flow cytometric analyses were used to assess the effects of Compound 1 and various antimicrotubule drugs on the cell cycle phase distributions of HL-60 human promyelocytic leukemia cells. The percentage of cells in the G2/M phases were increased approximately 2-fold by treatment of the cells for 24 hours with either TAXOL (paclitaxel), vinblastine, colchicine, or Compound 1.

[20] = tested on: WAF1; test: Western blot, WAF1 expression in MCF-7 cells; type: cell-based, human; conditions: 24 hours, various concentrations
Method: To further characterize the cell cycle effects of Compound 1 on human tumor cells, MCF-7 cells were treated for 24 hours with various concentrations of Compound 1, vinblastine, or TAXOL (paclitaxel). Cells were then harvested, lysed, and analyzed for levels of expression of p53 and WAF1 by Western Blot analyses. […] Compound 1 is identified as “149” in these figures. […] None of these treatments affected the expression of bcl-2 or P-tubulin in the MCF-7 cells.

`COc1cc(CCc2cn(Cc3ccccc3)c3nc(N)nc(C)c23)cc(OC)c1OC` [Compound 1] gave a GI50 [1] of 64.7 nM, a GI50 [2] of 84.6 nM and a GI50 [3] of 31.4 nM. It also gave a GI50 [4] of 47.7 nM, a GI50 [5] of 39.9 nM and a GI50 [6] of 28.8 nM. It also gave a GI50 [7] of 364 nM, a GI50 [8] of 366 nM and a GI50 [9] of 317 nM. For the same compound, the GI50 [10] was 127 nM, the GI50 [11] was 194 nM and the GI50 [12] was 669 nM. The GI50 [13] was 41.8 nM, the GI50 [14] was 74.5 nM and the GI50 [15] was 537 nM. It also gave a GI50 [16] of under 10 nM, a GI50 [17] of 563 nM and an IC50 [18] of 280 ± 100 nM. The “increase of the percentage of cells in the G2/M phases” value ([19]; HL-60) was “approximately 2 fold”, the “cell cycle distribution, G2/M” value ([19]; percentage of HL-60 cells) was 9.7 ± 0.4 and the “cell cycle distribution, G9/G1” value ([19]; percentage of HL-60 cells) was 80.0 ± 2.4. The “cell cycle distribution, S” value ([19]; percentage of HL-60 cells) was 10.3 ± 2.0 and the “level of expression of WAF1 (in words)” value [20] was “induced the expression”.
